Source: article PMC7038240 (Antimicrobial Agents and Chemotherapy, 2020)
Where two headings read alike, the source gives them in different places.

Key:
Experiment in all cases: microbe, parasite or virus in culture
Assay type in all cases: cell-based
[1] = system: K. pneumoniae; conditions: Klebsiella pneumoniae, read-out: MIC
Excerpt: (§1) The antibacterial activity of cefepime-taniborbactam was compared to that of ceftazidime-avibactam, ceftolozane-tazobactam, and cefepime-tazobactam against a diverse panel of Enterobacterales and P. aeruginosa clinical isolates with defined β-lactamase subtypes (see Table S1 in the supplemental material). IMP-producing strains were excluded, as none of the BLI-protected cephalosporins inhibited IMP sufficiently to provide a clinically relevant rescue of the partner β-lactam, a characteristic also shared by approved BLI-protected carbapenems (meropenem-vaborbactam and imipenem-relebactam). […] The antibacterial activity of the cephalosporins alone was included to ascertain the level of potentiation by the partnered BLI. BLIs were tested at a fixed concentration of 4 μg/ml in all combinations except cefepime-tazobactam, where tazobactam was fixed at a concentration of 8 μg/ml ([38]). The collection comprised 143 clinical isolates collected from 2005 and 2018.
(§2) The in vitro antibacterial activity of the β-lactams alone or in combination with the BLIs was determined in cation-adjusted Mueller-Hinton broth (CAMHB) microdilution assays according to CLSI recommendations ([51]). […]. The inocula for the broth microdilution assays were prepared by the broth culture method ([51]). […]

[2] = system: S. paratyphi; conditions: Salmonella enterica, strain 527, AmpC/TEM-1
Excerpt: as §1, §2

[3] = system: P. aeruginosa; conditions: Pseudomonas aeruginosa
Excerpt: as §1, §2

CO/N=C(\C(=O)N[C@@H]1C(=O)N2C(C(=O)[O-])=C(C[N+]3(C)CCCC3)CS[C@H]12)c1csc(N)n1 [FEP]
MIC ([1]; ATCC13883, K. pneumoniae ATCC 13883, enzyme content None): 0.06 µg/mL | MIC ([1]; BAA1705, K. pneumoniae BAA 1705, KPC-2): 16 µg/mL | MIC ([1]; K. pneumoniae CDC-0049 (NDM), BLI fixed at 4 μg/ml): 256 µg/mL | MIC ([1]; strain 6299, OXA-163): 64 µg/mL | MIC ([1]; strain 137052, SHV-11/KPC-3/TEM-1): 16 µg/mL | MIC ([1]; strain 178279, SHV-12/TEM-1/AmpC): 8 µg/mL | MIC ([1]; strain 196477, AmpC): 16 µg/mL | MIC ([1]; strain 212027, AmpC/FOX-5/TEM-1): 2 µg/mL | MIC ([1]; strain 515746, OXA-48): 32 µg/mL | MIC ([1]; strain 664438, OXA-48): 32 µg/mL | MIC ([1]; strain 664439, OXA-48): 32 µg/mL | MIC ([1]; strain 722870, OXA-48): 8 µg/mL | MIC ([1]; strain 752334, OXA-48): 128 µg/mL | MIC ([1]; strain 769972, OXA-48): 16 µg/mL | MIC ([1]; strain 787422, OXA-48): 64 µg/mL | MIC ([1]; strain 845661, KPC): ≥ 256 µg/mL | MIC ([1]; strain 847204, KPC): 32 µg/mL | MIC ([1]; strain 848562, KPC): ≥ 256 µg/mL | MIC ([1]; strain 848600, KPC): ≥ 256 µg/mL | MIC ([1]; strain 848828, KPC): ≥ 256 µg/mL | MIC ([1]; strain 849170, KPC): ≥ 256 µg/mL | MIC ([1]; strain 856819, SHV-11/VIM-1): 32 µg/mL | MIC ([1]; strain 864085, KPC): 32 µg/mL | MIC ([1]; strain 871489, KPC): ≥ 256 µg/mL | MIC ([1]; strain 873460, SHV-30/CTX-M-15): 32 µg/mL | MIC ([1]; strain 874328, SHV-11/CTX-M-15/NDM-1): 128 µg/mL | MIC ([1]; strain 882752, SHV-11/TEM-1/KPC-3): 128 µg/mL | MIC ([1]; strain 882956, SHV-31/DHA-1/VIM-1): 16 µg/mL | MIC ([1]; strain 884679, KPC): 32 µg/mL | MIC ([1]; strain 890066, SHV-33/TEM-33/CTX-M-15/IMP-1): 64 µg/mL | MIC ([1]; strain 892694, SHV-12/TEM-1/CTX-M-15/OXA-48/ACT): 32 µg/mL | MIC ([1]; strain 919877, SHV-OSBL/VIM-1): 128 µg/mL | MIC ([1]; strain 1104864, SHV-OSBL(b)/VIM-1): ≥ 256 µg/mL | MIC ([1]; strain 1104866, SHV-OSBL(b)/VIM-1): ≥ 256 µg/mL | MIC ([1]; strain 1280442, SHV-OSBL(b)/VIM-1): 16 µg/mL | MIC ([1]; strain CDC-0003, KPC): 32 µg/mL | MIC ([1]; strain CDC-0049, NDM): ≥ 256 µg/mL | MIC ([1]; strain CDC-0117, KPC-3): 64 µg/mL | MIC ([1]; strain CDC-0125, KPC-3): 64 µg/mL | MIC ([1]; strain CDC-0139, NDM-1): ≥ 256 µg/mL | MIC ([1]; strain CDC-0145, NDM): ≥ 256 µg/mL | MIC ([1]; strain CDC-0148, NDM): 128 µg/mL | MIC ([1]; strain CDC-0152, NDM): ≥ 256 µg/mL | MIC ([1]; strain DOV, OXA-48): 32 µg/mL | MIC ([1]; strain ESBL8 #1, TEM-1/SHV-12): 4 µg/mL | MIC ([1]; strain ESBL 10, SHV-12/TEM-1): 8 µg/mL | MIC ([1]; strain KIRK, OXA-162): 16 µg/mL | MIC ([1]; strain KP 3, SHV-1/TEM-1): 16 µg/mL | MIC ([1]; strain KPN 508, SHV-7/TEM-1): 8 µg/mL | MIC ([1]; strain SI-C05, OXA-48): 16 µg/mL | MIC ([1]; strain SI-F100, SHV-5/TEM-1/CMY-2): 1 µg/mL | MIC ([1]; strain SI-KP NO30, TEM-26b/SHV-60/SHV-26): 16 µg/mL | MIC [2]: 64 µg/mL | MIC [3]: 16 µg/mL | MIC ([3]; ATCC27853, P. aeruginosa ATCC 27853, PDC-5, read-out: MIC): 1 µg/mL | MIC ([3]; ATCC27853, strain ATCC 27853, W.T., read-out: MIC): 1 µg/mL | MIC ([3]; P. aeruginosa CDC-0457, VIM, read-out: MIC): 16 µg/mL | MIC ([3]; P. aeruginosa PS-12 (ST-235, VIM-2), BLI fixed at 4 μg/ml, read-out: MIC): 32 µg/mL | MIC ([3]; strain 10.257, PDC-50, read-out: MIC): 32 µg/mL | MIC ([3]; strain 11.516, PDC-79, read-out: MIC): 16 µg/mL | MIC ([3]; strain 11.698, PDC-87, read-out: MIC): 128 µg/mL | MIC ([3]; strain 11.813, PDC-91, read-out: MIC): ≥ 256 µg/mL | MIC ([3]; strain 13.1716, PDC-74, read-out: MIC): 128 µg/mL | MIC ([3]; strain 13.1717, PDC-74, read-out: MIC): 64 µg/mL | MIC ([3]; strain 13.1737, PDC-80, read-out: MIC): 16 µg/mL | MIC ([3]; strain 13.1755, PDC-86, read-out: MIC): 16 µg/mL | MIC ([3]; strain 13.1760, PDC-77, read-out: MIC): 16 µg/mL | MIC ([3]; strain 13.1775, PDC-87, read-out: MIC): 64 µg/mL
